Measurements: patent US9873702B2, “Heterocyclic compounds as biogenic amine transport modulators” (Southern Research Institute, priority 2014, dated 2018)
Where two headings read alike, the source gives them in different places.

Tests used:
[1] = target: dopamine transporter (DAT) (Rattus norvegicus, UniProt P23977); test: Dopamine reuptake ([^3H]dopamine uptake) inhibition in rat brain synaptosomes; settings: for Emax: read-out: DA Uptake Emax (% I ± SD)
[2] = DA Uptake EC50 (nM ± SD), rat caudate synaptosomes, 5 nM [^3H]dopamine, 15 min, 25° C., three experiments pooled

Sequence of dopamine transporter (DAT) (P23977 whole entry): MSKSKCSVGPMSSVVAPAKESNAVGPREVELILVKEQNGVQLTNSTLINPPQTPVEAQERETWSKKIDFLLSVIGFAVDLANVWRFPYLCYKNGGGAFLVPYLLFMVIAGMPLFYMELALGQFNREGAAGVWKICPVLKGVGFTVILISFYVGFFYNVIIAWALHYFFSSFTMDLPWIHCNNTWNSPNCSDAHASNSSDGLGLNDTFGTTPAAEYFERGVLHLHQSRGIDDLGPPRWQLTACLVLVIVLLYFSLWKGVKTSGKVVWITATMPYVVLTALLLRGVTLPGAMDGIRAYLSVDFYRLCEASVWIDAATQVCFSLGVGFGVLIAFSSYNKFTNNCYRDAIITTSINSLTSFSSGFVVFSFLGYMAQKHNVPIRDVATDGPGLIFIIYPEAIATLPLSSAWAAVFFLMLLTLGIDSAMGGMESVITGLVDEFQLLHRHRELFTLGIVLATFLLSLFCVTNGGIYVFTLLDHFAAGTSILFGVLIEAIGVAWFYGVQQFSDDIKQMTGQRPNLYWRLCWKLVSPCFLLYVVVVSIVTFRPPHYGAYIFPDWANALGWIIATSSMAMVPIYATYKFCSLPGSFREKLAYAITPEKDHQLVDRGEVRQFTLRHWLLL

| SMILES | melting point [°C] | IC50 [1, 2] [nM] | Emax [1] [%] | IC50 [1] [nM] |
| --- | --- | --- | --- | --- |
| CN(C)c1ncc(-c2cccc(C(CNc3nc(-c4cnc(N(C)C)nc4)nc4ccccc34)c3ccccc3)n2)cn1 (centres unmarked) [compound 57, 2-(2-(Dimethylamino)Pyrimidin-5-yl)-N-(2-(6-(2-(Dimethylamino)Pyrimidin-5-yl)Pyridin-2-yl)-2-Phenylethyl)Quinazolin-4-Amine] | 112 | 55 ± 18 | 61 ± 3 |  |
| Cc1cc2nccn2cc1-c1nc(NCC(Oc2ccccc2)c2ccccc2)c2ccccc2n1 (centres unmarked) [compound 177, 2-(7-Methylimidazo[1,2-A]Pyridin-6-yl)-N-(2-Phenoxy-2-Phenylethyl)Quinazolin-4-Amine] | 243 to 246 | 2.3 ± 0.5 | 75 ± 3 |  |
| c1ccc(C(CNc2nc(-c3cnc4nccn4c3)nc3ccccc23)c2ncccn2)cc1 (centres unmarked) [compound 109, 2-(Imidazo[1,2-A]Pyrimidin-6-yl)-N-(2-Phenyl-2-(Pyrimidin-2-yl)Ethyl)Quinazolin-4-Amine] | 180 | 377 ± 78 | 57 ± 2 |  |
| COc1cc2nc(-c3ccsc3)nc(NCC(c3ccccc3)c3ccccc3)c2cc1OC [compound 27, N-(2,2-Diphenylethyl)-6,7-Dimethoxy-2-(Thiophen-3-yl)Quinazolin-4-Amine] | 92 | 580 | 100 |  |
| CCN(CC)C(=O)[C@]1(c2ccccc2)C[C@@H]1CNc1nc(-c2ccc3nccn3c2)nc2ccccc12 [compound 170, (1R,2S)—N,N-Diethyl-2-(((2-(Imidazo[1,2-A]Pyridin-6-yl)Quinazolin-4-yl)Amino)Methyl)-1-Phenylcyclopropanecarboxamide] | 221 to 223 | 78 ± 14 | 72 ± 2 |  |
| Cl.c1ccc(C(CNc2nc(-c3ccc4nccn4c3)nc3cc(OCCCN4CCOCC4)ccc23)c2ccccc2)cc1 [compound 125, N-(2,2-Diphenylethyl)-2-(Imidazo[1,2-A]Pyridin-6-yl)-7-(3-Morpholinopropoxy)Quinazolin-4-Amine Hydrochloride] | 232 |  | 52 ± 3 | 75 ± 25 |
| CC(C)(C)OC(=O)N[C@H](CNc1nc(-c2ccc3nccn3c2)nc2ccccc12)c1ccccc1 [compound 146, (S)-Tert-Butyl (2-((2-(Imidazo[1,2-A]Pyridin-6-yl)Quinazolin-4-yl)Amino)-1-Phenylethyl)Carbamate] | 252 to 254 | 414 ± 44 | 65 ± 1 |  |
| c1cncc(C(CNc2nc(-c3ccc4nccn4c3)nc3ccccc23)c2ccc[nH]2)c1 (centres unmarked) [compound 155, 2-(Imidazo[1,2-A]Pyridin-6-yl)-N-(2-(pyridin-3-yl)-2-(1H-Pyrrol-2-yl)Ethyl)Quinazolin-4-Amine] | 121 to 124 | 175 ± 65 | 77 ± 6 |  |
| c1ccc(C(CNc2nc(-c3cccc4[nH]ccc34)nc3ccccc23)c2ccccc2)cc1 [compound 32, N-(2,2-Diphenylethyl)-2-(1H-Indol-4-yl)Quinazolin-4-Amine] | 100 | 189 ± 37 | 68 ± 3 |  |
| c1ccc(C(CNc2nc(-c3cccc4cccnc34)nc3ccccc23)c2ccccc2)cc1 [compound 141, N-(2,2-Diphenylethyl)-2-(Quinolin-8-yl)Quinazolin-4-Amine] | 102 to 104 | 45 ± 7 | 98 ± 3 |  |
| Cn1ccc2cc(-c3nc(NCC(c4ccccc4)c4cccnc4)c4ccccc4n3)ccc21 (centres unmarked) [compound 137, 2-(1-Methyl-1H-Indol-5-yl)-N-(2-Phenyl-2-(Pyridin-3-yl)Ethyl)Quinazolin-4-Amine] | 91 to 93 | 44 ± 8 | 76 ± 2 |  |
| Cc1cc2nccn2cc1-c1nc(NCC(c2ccccc2)C(C)C)c2ccccc2n1 (centres unmarked) [compound 169, N-(3-Methyl-2-Phenylbutyl)-2-(7-Methylimidazo[1,2-A]Pyridin-6-yl)Quinazolin-4-Amine] | 115 to 118 | 1.8 ± 0.4 | 64 ± 2 |  |
| c1ccc(C(CNc2nc(-c3ccc4nccn4c3)nc3ccccc23)c2ccccn2)cc1 (centres unmarked) [compound 94, 2-(Imidazo[1,2-A]Pyridin-6-yl)-N-(2-Phenyl-2-(Pyridin-2-yl)Ethyl)Quinazolin-4-Amine] | 238 | 36 ± 4 | 69 ± 1 |  |
| Cc1cc2nccn2cc1-c1nc(NCC(C)(c2ccccc2)c2ccccc2)c2ccccc2n1 [compound 178, N-(2,2-Diphenylpropyl)-2-(7-Methylimidazo[1,2-A]Pyridin-6-yl)Quinazolin-4-Amine] | 275 to 277 | 5 ± 1.1 | 76 ± 3 |  |
| Cc1cc2nccn2cc1-c1nc(NCCc2ccccn2)c2ccccc2n1 [compound 183, (7-Methylimidazo[1,2-A]Pyridin-6-yl)-N-(2-(Pyridin-2-yl)Ethyl)Quinazolin-4-Amine] | 224 to 228 | 912 ± 195 | 77 ± 4 |  |
| c1ccc(C(CNc2nc(-n3cncn3)nc3ccccc23)c2ccccc2)cc1 [compound 52, N-(2,2-Diphenylethyl)-2-(1H-1,2,4-Triazol-1-yl)Quinazolin-4-Amine] | 216 | 680 | 100 |  |
| COc1ccc2nc(-c3cnc(N(C)C)nc3)nc(NCC(c3ccccc3)c3ccccc3)c2c1 [compound 60, 2-(2-(Dimethylamino)Pyrimidin-5-yl)-N-(2,2-Diphenylethyl)-6-Methoxyquinazolin-4-Amine] | 198 | 947 ± 402 | 55 ± 6 |  |
| CCC(CNc1nc(-c2cn3ccnc3cc2C)nc2ccccc12)c1ccccc1 (centres unmarked) [compound 188, 2-(7-Methylimidazo[1,2-A]Pyridin-6-yl)-N-(2-Phenylbutyl)Quinazolin-4-Amine] | 232 to 234 | 1.4 ± 0.2 | 75 ± 2 |  |
| Cc1cc2nccn2cc1-c1nc(NCC(c2cccnc2)c2ccc[nH]2)c2ccccc2n1 (centres unmarked) [compound 156, 2-(7-Methylimidazo[1,2-A]Pyridin-6-yl)-N-(2-(Pyridin-3-yl)-2-(1H-Pyrrol-2-yl)Ethyl)Quinazolin-4-Amine] | 121 to 125 | 14 ± 3 | 68 ± 2 |  |
| c1ccc(C2CN(c3nc(-c4ccc5nccn5c4)nc4ccccc34)Cc3ccccc32)cc1 (centres unmarked) [compound 135, 2-(Imidazo[1,2-A]Pyridin-6-yl)-4-(4-Phenyl-3,4-Dihydroisoquinolin-2(1H)-yl)Quinazoline] | 107 to 109 | 1490 ± 342 | 70 ± 4 |  |
| c1ccc(CCNc2nc(N3CCc4[nH]ccc4C3)nc3ccccc23)cc1 [compound 202, 2-(6,7-Dihydro-1H-Pyrrolo[3,2-c]Pyridin-5(4H)-yl)-N-Phenethylquinazolin-4-Amine] | 161 to 163 | 94 ± 18 | 100 ± 3 |  |
| CCOC(=O)c1cn2cc(-c3nc(NCC(c4ccccc4)c4ccccc4)c4ccccc4n3)ccc2n1 [compound 113, Ethyl 6-(4-((2,2-Diphenylethyl)Amino)Quinazolin-2-yl)Imidazo[1,2-A]Pyridine-2-Carboxylate] | 204 | 74 ± 9 | 64 ± 1 |  |

Now from value to molecule, other results behind:

| melting point [°C] | IC50 [1, 2] [nM] | Emax [1] [%] | SMILES | IC50 [1] [nM] |
| --- | --- | --- | --- | --- |
| 233 | 62 | 100 | c1ccc(C(CNc2nc(-c3cn[nH]c3)nc3ccccc23)c2ccccc2)cc1 [compound 75, N-(2,2-Diphenylethyl)-2-(1H-Pyrazol-4-yl)Quinazolin-4-Amine] |  |
| 229 | 475 ± 85 | 72 ± 3 | c1ccc(C(CNc2nc(-c3cccc4[nH]ncc34)nc3ccccc23)c2ccccc2)cc1 [compound 35, N-(2,2-Diphenylethyl)-2-(1H-Indazol-4-yl)Quinazolin-4-Amine] |  |
| 224 | 67 ± 7 | 68 ± 1 | c1ccc(C(CNc2nc(-c3ccc4nncn4c3)nc3ccccc23)c2ccccc2)cc1 [compound 114, 2-([1,2,4]Triazolo[4,3-A]Pyridin-6-yl)-N-(2,2-Diphenylethyl)Quinazolin-4-amine] |  |
| 207 | 34 ± 5 | 68 ± 2 | CN(C)c1ccc(-c2nc(NC(c3ccccc3)c3ccccc3)c3ccccc3n2)cn1 [compound 92, N-Benzhydryl-2-(6-(Dimethylamino)Pyridin-3-yl)Quinazolin-4-Amine] |  |
| 211 | 170 | < 100 | Cn1cc(-c2nc(NCC(c3ccccc3)c3ccccc3)c3ccccc3n2)cn1 [compound 76, N-(2,2-Diphenylethyl)-2-(1-Methyl-1H-Pyrazol-4-yl)Quinazolin-4-Amine] |  |
| 189 | 1890 | < 100 | CC(C)(C)OC(=O)Nc1ncc(-c2nc(NCC(c3ccccc3)c3ccccc3)c3ccccc3n2)cn1 [compound 43, Tert-Butyl (5-(4-((2,2-Diphenylethyl)Amino)Quinazolin-2-yl)Pyrimidin-2-yl)Carbamate] |  |
| 142 | > 5000 |  | c1ccc(C(CNc2nc(-c3ccc4[nH]cnc4c3)nc3ccccc23)c2ccccc2)cc1 [compound 85, 2-(1H-Benzo [D]Imidazol-5-yl)-N-(2,2-Diphenylethyl)Quinazolin-4-Amine] |  |
| 121 | 195 ± 70 | 55 ± 4 | Cn1cc2c(-c3nc(NCC(c4ccccc4)c4ccccc4)c4ccccc4n3)cccc2n1 [compound 68, N-(2,2-Diphenylethyl)-2-(2-Methyl-2H-Indazol-4-yl)Quinazolin-4-Amine] |  |
| 207 | 130 ± 16 | 73 ± 2 | c1ccc(C(CNc2nc(-c3cccc4ncccc34)nc3ccccc23)c2ccccc2)cc1 [compound 49, N-(2,2-Diphenylethyl)-2-(Quinolin-5-yl)Quinazolin-4-Amine] |  |
| 213 to 215 | 160 | < 100 | c1ccc(C(CNc2nc(-c3cncnc3)nc3ccccc23)c2ccccc2)cc1 [compound 18, N-(2,2-Diphenylethyl)-2-(Pyrimidin-5-yl)Quinazolin-4-Amine] |  |
